Data on three compounds can be found in patent US20250163384A1, “ORGANOIDS DERIVED FROM HUMAN COLONIC CELLS AND METHODS OF MAKING AND USING THE SAME” (priority 2022, published 2025).

Holding throughout (format): cell-based, human
Test [1] deals with GiLA1 organoid monolayers. As to the kind of experiment: Apoptosis-induced ERK waves and cell movement (particle image velocimetry) in GiLA1 organoid monolayers. Particulars: 5 μM Gefitinib (FIG. 3G), after an apoptotic event. How it is done: 384-well plates were imaged with fluorescent microscopy on a Nikon Eclipse TI2 automated microscope. For quantification of wave dynamics, organoids were imaged every 10-30 min. Tracking and segmentation of single cells in time lapse images in FIG. 2 was performed using the MATLAB program p53Cinema (Reyes et al., 2019). Analysis of the extracted data was performed in MATLAB. For the ERK activity heat maps in FIG. 3, images of the ERK-KTRmRuby2 and the H2B-iRFP670 were captured every 7 min for 24 hr. For each frame, individual nuclei were segmented using a MATLAB script developed in-house that identifies nuclei based on the H2B-iRFP670 images. The cytoplasmic ERK-KTRmRuby2 signal was obtained by creating a two pixel wide annulus surrounding the nucleus and averaging the intensity. Cells with active ERK were identified as having a mean ERK-KTR cytoplasmic signal>the mean ERK-KTR nuclear signal. The density-based spatial clustering of applications with noise algorithm (dbscan, MATLAB, 2021b) was performed on the centroids of ERK active cells to identify spatial clusters of cells with active ERK. A boundary was drawn around the spatial clusters using the boundary algorithm in MATLAB. […]
To determine the properties of the ERK waves, about 450 cells were tracked and their ERK activity was assessed over time following an apoptotic event (FIG. 3D, left panel and FIG. 3E). […]

A further test concerns ERK. As to the kind of experiment: ERK kinase translocation reporter (ERK-KTR) activity in GiLA1 organoid monolayers. As to conditions: for time to activation of ERK: GiLA1 monolayers, ERK activation methods compared. The procedure:
384-well plates were imaged with fluorescent microscopy on a Nikon Eclipse TI2 automated microscope. For quantification of wave dynamics, organoids were imaged every 10-30 min. Tracking and segmentation of single cells in time lapse images in FIG. 2 was performed using the MATLAB program p53Cinema (Reyes et al., 2019). Analysis of the extracted data was performed in MATLAB. For the ERK activity heat maps in FIG. 3, images of the ERK-KTRmRuby2 and the H2B-iRFP670 were captured every 7 min for 24 hr. For each frame, individual nuclei were segmented using a MATLAB script developed in-house that identifies nuclei based on the H2B-iRFP670 images. The cytoplasmic ERK-KTRmRuby2 signal was obtained by creating a two pixel wide annulus surrounding the nucleus and averaging the intensity. Cells with active ERK were identified as having a mean ERK-KTR cytoplasmic signal>the mean ERK-KTR nuclear signal. The density-based spatial clustering of applications with noise algorithm (dbscan, MATLAB, 2021b) was performed on the centroids of ERK active cells to identify spatial clusters of cells with active ERK. A boundary was drawn around the spatial clusters using the boundary algorithm in MATLAB. The ERK positive regions of each frame were summed up to generate the heat map in MATLAB. MAPK/ERK signaling is a critical regulatory pathway involved in maintaining homeostasis of epithelia in the gut (Wei et al., 2020). To assess ERK activity in human organoid monolayers over time, we utilized a well-characterized ERK kinase translocation reporter (ERK-KTR) (Regot et al., 2014). The ERK-KTR utilizes a bipartite nuclear localization signal (NLS) and nuclear export signal (NES) to transform ERK kinase activity into a nuclear to cytoplasmic shuttling event that is easily quantified by microscopy in organoid monolayers (FIG. 3A). We transduced the GiLA1 organoid line with a H2B-iRFP670 nuclear marker and ERK-KTR-mRuby2 reporter to perform nuclear and cytoplasmic segmentation and calculate nuclear-to-cytoplasmic ratios of the ERK-KTR (FIG. 3A, FIG. 3B and FIG. 9A).

Test [2] concerns GiLA1 organoid monolayers. As to the kind of experiment: Tissue patterning (nodes / cell clusters) in GiLA1 organoid monolayers. Particulars: for speed of node loss / patterning defects: GiLA1 monolayers, ERK activation methods compared. How it is done:
SCREENSTAR 384-well black plates (Grenier #781866) were coated with ice cold Matrigel (CB40230C) diluted 1:40 in Serum-free Advanced-DMEM F12 media (SFM) for 1 hr. Monolayers were prepared using our previously described protocol (Thorne et al., 2018; Sanman et al., 2020). Briefly, cells were removed from 3D Matrigel and resuspended in ice cold SFM and washed three times using ice cold SFM. Organoids were then dissociated by resuspension in Trypsin+10 μM Y-27 for 4 min followed by quenching in DMEM supplemented with 10% FBS and washing. Coating media was removed from 384-well plates and organoids plated at 7000 cells/well after counting using hemocytometer and cultured for 24 hr. Seeding media was then removed and replaced with complete LWRN media and changed daily for 7 days until cultures became confluent and tissue patterning was observed.
384-well plates were imaged with fluorescent microscopy on a Nikon Eclipse TI2 automated microscope. For quantification of wave dynamics, organoids were imaged every 10-30 min. Tracking and segmentation of single cells in time lapse images in FIG. 2 was performed using the MATLAB program p53Cinema (Reyes et al., 2019). Analysis of the extracted data was performed in MATLAB. For the ERK activity heat maps in FIG. 3, images of the ERK-KTRmRuby2 and the H2B-iRFP670 were captured every 7 min for 24 hr. For each frame, individual nuclei were segmented using a MATLAB script developed in-house that identifies nuclei based on the H2B-iRFP670 images. The cytoplasmic ERK-KTRmRuby2 signal was obtained by creating a two pixel wide annulus surrounding the nucleus and averaging the intensity. Cells with active ERK were identified as having a mean ERK-KTR cytoplasmic signal>the mean ERK-KTR nuclear signal. The density-based spatial clustering of applications with noise algorithm (dbscan, MATLAB, 2021b) was performed on the centroids of ERK active cells to identify spatial clusters of cells with active ERK. A boundary was drawn around the spatial clusters using the boundary algorithm in MATLAB. The ERK positive regions of each frame were summed up to generate the heat map in MATLAB.
Since ERK waves are largely restricted to the post-mitotic, differentiated compartments in our gut organoid monolayer model, we hypothesized that ERK waves may help regulate the patterning observed in the GiLA1 monolayers by restricting the stem cell compartment. To test this hypothesis, we asked if global activation of ERK activity could disrupt the patterning of the organoid monolayers. a well-established activator of the ERK pathway, phorbol 12-myristate 13-acetate (PMA) was used to acutely activate ERK signaling across the monolayer. […] To determine if nodes re-formed once ERK activity returned to baseline, we treated GiLA1 monolayers with a pulse of 100 nM PMA for 1 min.

A further test deals with Wnt signaling. As to the kind of experiment: TopGFP Wnt reporter in organoid monolayers. Particulars: 3 μM pyrvinium, 72 hr. The procedure:
Organoids were treated with either 3 μM pyrvinium to block Wnt signaling or 10 μM GSK-3 inhibitor to stimulate the Wnt pathway for 72 hr. Cells were fixed and stained for DAPI. Total GFP fluorescence across the monolayer was measured and normalized by mCherry control to obtain TopGFP measurements per condition. Significance between treatment groups was determined by t-test. Scale bar=100 μm.

Regarding `COc1cc2ncnc(Nc3ccc(F)c(Cl)c3)c2cc1OCCCN1CCOCC1` [Gefitinib], in test [1], the “ERK waves and tropism towards dying cells” value was “did not induce ERK waves or display tropism towards dying cells”.

In the case of `CCCCCCCCCCCCCC(=O)O[C@@H]1[C@@H](C)[C@@]2(O)[C@@H](C=C(CO)C[C@]3(O)C(=O)C(C)=C[C@@H]23)[C@@H]2C(C)(C)[C@]12OC(C)=O` [PMA, phorbol 12-myristate 13-acetate], the “ERK activity after continuous treatment” value with ERK (100 nM PMA, 20-30 min (FIGS. 4B and C)) is “immediate hyperactivated ERK was observed in all cells”. Moreover, the “time to activation of ERK” value in the test with ERK is recorded as “within hours”. Also, in the test with ERK (pulse of 100 nM PMA for 1 min, after washout), the “ERK levels after pulse treatment, later” value was “ERK levels returned to normal”. Also, the “ERK activation after pulse treatment” value with ERK (pulse of 100 nM PMA for 1 min, read after 30 min) was “ERK activation in all cells”. Besides, in test [2] (100 nM PMA, by 24 hr post-treatment (FIG. 4D-F)), the “loss of patterning (cell clusters)” value is given as “almost complete loss of cell clusters”. The “speed of node loss / patterning defects” value in test [2] is reported as “rapid node loss”. For the same compound, in test [2] (PMA pulse 1 min, washout, chase for 24 hr (FIG. 4G bottom)), the “node and ERK-KTR activity after pulse, washout and chase” value was “node loss and resuppression of ERK activity”. In addition, the “nodes after pulse treatment” value in test [2] (pulse of 100 nM PMA for 1 min) was “node loss”. Moreover, in test [2] (pulse of 100 nM PMA for 1 min, by 48 hr (FIG. 4G)), the “re-formation of nodes after pulse treatment” value is “nodes did not re-form”.

`Cc1cc(/C=C/c2ccc3cc(N(C)C)ccc3[n+]2C)c(C)n1-c1ccccc1` [pyrvinium]: the “time to activation of ERK” value with ERK is given as “within hours”. The “speed of node loss / patterning defects” value in test [2] is given as “took days to induce patterning defects”. Further, the “Wnt signaling (TopGFP normalized by mCherry)” value with Wnt signaling is reported as “Inhibits Wnt Signaling”.
